{
  "source": "patent US7214713B2",
  "about": "“Antraquinone compositions as anticancer compositions and nutrition supplements and methods of making and using them” (priority 2000, dated 2007)",
  "test_system": "ascitic form of Gardner lymphosarcoma (IP-LsG)",
  "test": "anti-cancer screening in mice with ascitic Gardner lymphosarcoma",
  "type": "in vivo",
  "details": "for weight coefficient (weight loss in comparison with the control group): one week after the start of the therapy",
  "description": "The red colorant isolated under the above-described conditions and having the above-mentioned characteristics was subjected to a screening study for anti-cancer properties.\nThe tested substance was administered to mice suffering from the ascitic form of Gardner lymphosarcoma (IP-LsG). 6-(2-(2-hydroxyethyl)aminoethyl)-5,11-dioxo-5,6-dihydro-11H-indeno[1,2-c]isoquinoline hydrochloride having the summary formula C20H18N2O3.HCl was used as a reference substance.\nFemale C3H mice weighing 26.1 to 27.3 g were used. The animals were kept in plastic containers and fed with the NOE diet made by RATIO, s.r.o., Breclav, Czech Republic, and with potable water ad libitum. The temperature in the room was maintained, the relative humidity was 60%, and the light regimen was not regulated.\nThe Gardner lymphosarcoma is maintained in the ascitic form in the C3H mice by inoculating ascitic cells removed a week after the previous inoculation by puncturing the abdominal cavity. The mice are administered with 0.2 ml of the ascites diluted with an isotonic solution of sodium chloride for injections intraperitoneally 10 to 20 times. The cell material for tests is obtained by puncturing the abdominal cavity on the seventh day following inoculation. For the therapeutic test, the inoculation with the ascites diluted with an isotonic solution of sodium chloride for injections was made by administering 10^7 cells in a volume of 0.2 ml i.p. to each animal.\nThe C3H mice were over 6 weeks old, weighing 26.1 to 27.3 g, in groups of 10 animals, the control was-common. Two dosage groups were used for each route of administration and for one substance tested.\nThe dosage levels: 200 and 100 mg/kg×5 p.o. and 100 and 50 mg/kg×5 s.c. in a volume 0.2 to 0.4 ml and 0.2 to 0.4 ml p.o. (reference substance), resp. for 20 g body weight. Frequency of administration: 1× daily beginning on the first day. The tested substance was administered in a continuous pattern on the 1st to 5th days in doses given in Table 1 and the reference substance was administered p.o. once on the 1st day.\nAfter the administration was finished, the animals were left for monitoring the survival time. The dose dependence of the survival time was evaluated in comparison with the non-administered control. Time as a biological response was currently evaluated by means of the non-parametric test according to Hájek (Fabián V.: Základní statistické metody (“Basic Statistical Methods”), NCSAV, Prague 1963).\nAfter the experiment was complete, time in case of point estimates was evaluated using the test of identity of two means (Student t-test) under the presumption of logarithmic-normal distribution of time values and under the presumption of various unknown variances (Roth Z., Josífko M., Malý V., Trcka V.: Statistické metody v experimentální medicíne (“Statistical Methods in Experimental Medicine”); p. 278, SZN, Prague 1962). Geometrical averages were calculated from the individual values of time to death. The differences In average values in which the value of the test criterion has exceeded the critical value for the significance level of 5% were designated as statistically significant.",
  "key": {"[1]": {"details": "100 mg/kg p.o. once on the 1st day"}, "[2]": {"details": "200 mg/kg p.o. once on the 1st day"}},
  "data": [
    {"smiles": "Cl.O=C1c2ccccc2-c2c1c1ccccc1c(=O)n2CCNCCO", "note": "[reference, 6-(2-(2-hydroxyethyl)aminoethyl)-5,11-dioxo-5,6-dihydro-11H-indeno[1,2-c]isoquinoline hydrochloride]", "values": [
      {"measurement": "median of time to death", "setting": "[1]", "value": ">48.5", "unit": "days"},
      {"measurement": "survival LTS (number of animals surviving on day 65)", "setting": "[1]", "value": "5/10"},
      {"measurement": "weight coefficient (weight loss in comparison with the control group)", "setting": "[1]", "value": "−6.67", "unit": "%"},
      {"measurement": "median of time to death", "setting": "[2]", "value": ">65.0", "unit": "days"},
      {"measurement": "survival LTS (number of animals surviving on day 65)", "setting": "[2]", "value": "10/10"},
      {"measurement": "weight coefficient (weight loss in comparison with the control group)", "setting": "[2]", "value": "−14.63", "unit": "%"}
    ]}
  ]
}
